Laboratory results taken from ChEMBL document CHEMBL5724806, “Unraveling interindividual differences and functional consequences of gut microbial metabolism of immunosuppressants” (2024).

How the values were obtained:
Type in all cases: ADME
[1] = The drug is tested on Collinsella aerofaciens strain: DSM3979 for biotransformation under anaerobic condition. The drug concentrations were measured over 6 timepoints collected between 0 and 12 hours of incubation by liquid-chromatography-coupled mass spectrometry (LC–MS); design: dose 5 uM, timepoint 0, 1.5, 3, 6, 9, 12 hours; conditions: 5 µM
[2] = The drug is tested on Capnocytophaga ochracea strain: DSM7271 for biotransformation under anaerobic condition. The drug concentrations were measured over 6 timepoints collected between 0 and 12 hours of incubation by liquid-chromatography-coupled mass spectrometry (LC–MS); design: dose 5 uM, timepoint 0, 1.5, 3, 6, 9, 12 hours; conditions: 5 µM
[3] = The drug is tested on Odoribacter splanchnicus strain: DSM20712 for biotransformation under anaerobic condition. The drug concentrations were measured over 6 timepoints collected between 0 and 12 hours of incubation by liquid-chromatography-coupled mass spectrometry (LC–MS); design: dose 5 uM, timepoint 0, 1.5, 3, 6, 9, 12 hours; conditions: 5 µM
[4] = The drug is tested on Parabacteroides merdae strain: DSM19495 for biotransformation under anaerobic condition. The drug concentrations were measured over 6 timepoints collected between 0 and 12 hours of incubation by liquid-chromatography-coupled mass spectrometry (LC–MS); design: dose 5 uM, timepoint 0, 1.5, 3, 6, 9, 12 hours; conditions: 5 µM
[5] = The drug is tested on Prevotella copri strain: DSM18205 for biotransformation under anaerobic condition. The drug concentrations were measured over 6 timepoints collected between 0 and 12 hours of incubation by liquid-chromatography-coupled mass spectrometry (LC–MS); design: dose 5 uM, timepoint 0, 1.5, 3, 6, 9, 12 hours; conditions: segatella copri, 5 µM
[6] = The drug is tested on Eubacterium rectale strain: DSM17629 for biotransformation under anaerobic condition. The drug concentrations were measured over 6 timepoints collected between 0 and 12 hours of incubation by liquid-chromatography-coupled mass spectrometry (LC–MS); design: dose 5 uM, timepoint 0, 1.5, 3, 6, 9, 12 hours; conditions: agathobacter rectalis, 5 µM
[7] = The drug is tested on Lactobacillus paracasei strain: ATCC27092 for biotransformation under anaerobic condition. The drug concentrations were measured over 6 timepoints collected between 0 and 12 hours of incubation by liquid-chromatography-coupled mass spectrometry (LC–MS); design: dose 5 uM, timepoint 0, 1.5, 3, 6, 9, 12 hours; conditions: lacticaseibacillus paracasei, 5 µM
[8] = The drug is tested on Ruminococcus gnavus strain: ATCC29149 for biotransformation under anaerobic condition. The drug concentrations were measured over 6 timepoints collected between 0 and 12 hours of incubation by liquid-chromatography-coupled mass spectrometry (LC–MS); design: dose 5 uM, timepoint 0, 1.5, 3, 6, 9, 12 hours; conditions: mediterraneibacter gnavus, 5 µM
[9] = The drug is tested on Streptococcus anginosus strain: DSM20563 for biotransformation under anaerobic condition. The drug concentrations were measured over 6 timepoints collected between 0 and 12 hours of incubation by liquid-chromatography-coupled mass spectrometry (LC–MS); design: dose 5 uM, timepoint 0, 1.5, 3, 6, 9, 12 hours; conditions: 5 µM
[10] = The drug is tested on Streptococcus sanguinis strain: DSM20567 for biotransformation under anaerobic condition. The drug concentrations were measured over 6 timepoints collected between 0 and 12 hours of incubation by liquid-chromatography-coupled mass spectrometry (LC–MS); design: dose 5 uM, timepoint 0, 1.5, 3, 6, 9, 12 hours; conditions: 5 µM
[11] = The drug is tested on Actinomyces graevenitzii strain: DSM15540 for biotransformation under microaerobic condition. The drug concentrations were measured over 6 timepoints collected between 0 and 12 hours of incubation by liquid-chromatography-coupled mass spectrometry (LC–MS); design: dose 5 uM, timepoint 0, 1.5, 3, 6, 9, 12 hours; conditions: 5 µM
[12] = The drug is tested on Lactobacillus gasseri strain: DSM20243 for biotransformation under microaerobic condition. The drug concentrations were measured over 6 timepoints collected between 0 and 12 hours of incubation by liquid-chromatography-coupled mass spectrometry (LC–MS); design: dose 5 uM, timepoint 0, 1.5, 3, 6, 9, 12 hours; conditions: 5 µM
[13] = The drug is tested on Lactobacillus reuteri strain: DSM20016 for biotransformation under microaerobic condition. The drug concentrations were measured over 6 timepoints collected between 0 and 12 hours of incubation by liquid-chromatography-coupled mass spectrometry (LC–MS); design: dose 5 uM, timepoint 0, 1.5, 3, 6, 9, 12 hours; conditions: limosilactobacillus reuteri, 5 µM
[14] = The drug is tested on Streptococcus salivarius strain: DSM20560 for biotransformation under microaerobic condition. The drug concentrations were measured over 6 timepoints collected between 0 and 12 hours of incubation by liquid-chromatography-coupled mass spectrometry (LC–MS); design: dose 5 uM, timepoint 0, 1.5, 3, 6, 9, 12 hours; conditions: 5 µM
[15] = The drug is tested on Streptococcus sanguinis strain: DSM20567 for biotransformation under microaerobic condition. The drug concentrations were measured over 6 timepoints collected between 0 and 12 hours of incubation by liquid-chromatography-coupled mass spectrometry (LC–MS); design: dose 5 uM, timepoint 0, 1.5, 3, 6, 9, 12 hours; conditions: 5 µM
[16] = The drug is tested on the gut metagenome community of A-04 with ENA study accession number: PRJEB31790 for biotransformation under anaerobic condition. The drug concentrations were measured over 7 timepoints collected between 0 and 12 hours of incubation by liquid-chromatography-coupled mass spectrometry (LC–MS); design: dose 5 uM, timepoint 0, 0.75, 1.5, 3, 6, 9, 12 hours; conditions: 5 µM
[17] = The drug is tested on the gut metagenome community of A-06 with ENA study accession number: PRJEB31790 for biotransformation under anaerobic condition. The drug concentrations were measured over 7 timepoints collected between 0 and 12 hours of incubation by liquid-chromatography-coupled mass spectrometry (LC–MS); design: dose 5 uM, timepoint 0, 0.75, 1.5, 3, 6, 9, 12 hours; conditions: 5 µM
[18] = The drug is tested on the gut metagenome community of P-01 with ENA study accession number: PRJEB31790 for biotransformation under anaerobic condition. The drug concentrations were measured over 7 timepoints collected between 0 and 12 hours of incubation by liquid-chromatography-coupled mass spectrometry (LC–MS); design: dose 5 uM, timepoint 0, 0.75, 1.5, 3, 6, 9, 12 hours; conditions: 5 µM
[19] = The drug is tested on the gut metagenome community of P-03 with ENA study accession number: PRJEB31790 for biotransformation under anaerobic condition. The drug concentrations were measured over 7 timepoints collected between 0 and 12 hours of incubation by liquid-chromatography-coupled mass spectrometry (LC–MS); design: dose 5 uM, timepoint 0, 0.75, 1.5, 3, 6, 9, 12 hours; conditions: 5 µM
[20] = The drug is tested on the gut metagenome community of T-02 with ENA study accession number: PRJEB31790 for biotransformation under anaerobic condition. The drug concentrations were measured over 7 timepoints collected between 0 and 12 hours of incubation by liquid-chromatography-coupled mass spectrometry (LC–MS); design: dose 5 uM, timepoint 0, 0.75, 1.5, 3, 6, 9, 12 hours; conditions: 5 µM
[21] = The drug is tested on the gut metagenome community of T-03 with ENA study accession number: PRJEB31790 for biotransformation under anaerobic condition. The drug concentrations were measured over 7 timepoints collected between 0 and 12 hours of incubation by liquid-chromatography-coupled mass spectrometry (LC–MS); design: dose 5 uM, timepoint 0, 0.75, 1.5, 3, 6, 9, 12 hours; conditions: 5 µM
[22] = The drug is tested on the gut metagenome community of T-04 with ENA study accession number: PRJEB31790 for biotransformation under anaerobic condition. The drug concentrations were measured over 7 timepoints collected between 0 and 12 hours of incubation by liquid-chromatography-coupled mass spectrometry (LC–MS); design: dose 5 uM, timepoint 0, 0.75, 1.5, 3, 6, 9, 12 hours; conditions: 5 µM
[23] = The drug is tested on the gut metagenome community of A-01 with ENA study accession number: PRJEB31790 for biotransformation under microaerobic condition. The drug concentrations were measured over 7 timepoints collected between 0 and 12 hours of incubation by liquid-chromatography-coupled mass spectrometry (LC–MS); design: dose 5 uM, timepoint 0, 0.75, 1.5, 3, 6, 9, 12 hours; conditions: 5 µM
[24] = The drug is tested on the gut metagenome community of A-10 with ENA study accession number: PRJEB31790 for biotransformation under microaerobic condition. The drug concentrations were measured over 7 timepoints collected between 0 and 12 hours of incubation by liquid-chromatography-coupled mass spectrometry (LC–MS); design: dose 5 uM, timepoint 0, 0.75, 1.5, 3, 6, 9, 12 hours; conditions: 5 µM
[25] = The drug is tested on the gut metagenome community of T-02 with ENA study accession number: PRJEB31790 for biotransformation under microaerobic condition. The drug concentrations were measured over 7 timepoints collected between 0 and 12 hours of incubation by liquid-chromatography-coupled mass spectrometry (LC–MS); design: dose 5 uM, timepoint 0, 0.75, 1.5, 3, 6, 9, 12 hours; conditions: 5 µM

SMILES	Bacterial Biotransformation [1]	Bacterial Biotransformation [2]	Bacterial Biotransformation [3]	Bacterial Biotransformation [4]	Bacterial Biotransformation [5]	Bacterial Biotransformation [6]	Bacterial Biotransformation [7]	Bacterial Biotransformation [8]	Bacterial Biotransformation [9]	Bacterial Biotransformation [10]	Bacterial Biotransformation [11]	Bacterial Biotransformation [12]	Bacterial Biotransformation [13]	Bacterial Biotransformation [14]	Bacterial Biotransformation [15]	Bacterial Biotransformation [16]	Bacterial Biotransformation [17]	Bacterial Biotransformation [18]	Bacterial Biotransformation [19]	Bacterial Biotransformation [20]	other results
CNC(=C[N+](=O)[O-])NCCSCc1ccc(CN(C)C)o1 [RANITIDINE]	Compound NOT metabolized	Compound NOT metabolized	Compound NOT metabolized	Compound NOT metabolized	Compound NOT metabolized	Compound NOT metabolized	Compound NOT metabolized	Compound NOT metabolized	Compound NOT metabolized	Compound NOT metabolized	Compound NOT metabolized	Compound NOT metabolized	Compound NOT metabolized	Compound NOT metabolized	Compound NOT metabolized	Compound metabolized	Compound metabolized	Compound metabolized	Compound metabolized	Compound NOT metabolized	Bacterial Biotransformation [21]: Compound NOT metabolized; Bacterial Biotransformation [22]: Compound NOT metabolized; Bacterial Biotransformation [23]: Compound NOT metabolized; Bacterial Biotransformation [24]: Compound NOT metabolized; Bacterial Biotransformation [25]: Compound NOT metabolized
CCC(C)(C)C(=O)O[C@H]1C[C@@H](C)C=C2C=C[C@H](C)[C@H](CC[C@@H]3C[C@@H](O)CC(=O)O3)[C@H]21 [SIMVASTATIN]	Compound NOT metabolized	Compound NOT metabolized	Compound NOT metabolized	Compound NOT metabolized	Compound metabolized	Compound NOT metabolized	Compound NOT metabolized	Compound NOT metabolized	Compound NOT metabolized	Compound NOT metabolized	Compound NOT metabolized	Compound NOT metabolized	Compound NOT metabolized	Compound NOT metabolized	Compound NOT metabolized	Compound NOT metabolized	Compound NOT metabolized	Compound NOT metabolized	Compound NOT metabolized	Compound NOT metabolized	Bacterial Biotransformation [21]: Compound NOT metabolized; Bacterial Biotransformation [22]: Compound NOT metabolized; Bacterial Biotransformation [23]: Compound NOT metabolized; Bacterial Biotransformation [24]: Compound NOT metabolized; Bacterial Biotransformation [25]: Compound NOT metabolized
CO[C@H]1C[C@@H]2CC[C@@H](C)[C@@](O)(O2)C(=O)C(=O)N2CCCC[C@H]2C(=O)O[C@H]([C@H](C)C[C@@H]2CC[C@@H](O)[C@H](OC)C2)CC(=O)[C@H](C)/C=C(\C)[C@@H](O)[C@@H](OC)C(=O)[C@H](C)C[C@H](C)/C=C/C=C/C=C/1C [SIROLIMUS]	Compound metabolized	Compound metabolized	Compound NOT metabolized	Compound metabolized	Compound NOT metabolized	Compound NOT metabolized	Compound NOT metabolized	Compound NOT metabolized	Compound NOT metabolized	Compound metabolized	Compound metabolized	Compound NOT metabolized	Compound NOT metabolized	Compound NOT metabolized	Compound NOT metabolized	Compound metabolized	Compound metabolized	Compound NOT metabolized	Compound NOT metabolized	Compound metabolized	Bacterial Biotransformation [21]: Compound NOT metabolized; Bacterial Biotransformation [22]: Compound NOT metabolized; Bacterial Biotransformation [23]: Compound NOT metabolized; Bacterial Biotransformation [24]: Compound NOT metabolized; Bacterial Biotransformation [25]: Compound metabolized
